Patent publication US9187458B2, “Cyanoquinoline derivatives” (Tianjin Hemay Bio-Tech Co., LTD., priority 2010, dated 2015)

Key:
A431 cells = test: A431 Cell Growth Inhibition Test (MTT Assay); assay type: cell-based, human; conditions: Homo sapiens; for inhibition at 1 µM: A-431, 68 h, compound 1 μM, 68 h incubation, read-out: Growth Inhibition Ratio (%); for IC50: A-431, 68 h incubation
Protocol: A431 Cell Growth Inhibition Test (MTT Assay)
1. Cell strains: A431 (human epithelial […] cell strains);
Culture medium: 45% DMEM, 45% F12+10% FBS;
(§1) 1. A plate (10 cm) of cells in logarithmic growth phase normally cultured was collected;
(§2) 2. The culture solution was sucked out. The plate was washed with 5 ml of PBS 1-2 times;
3. PBS was sucked out, and 2 ml of 0.25% pancreatin was added to infiltrate the cells for 1 min;
4. The pancreatin was sucked out, and the culture plate was placed in an incubator. Digestion was carried out for about 15 min at 37° C.;
(§3) 5. 4 ml of complete culture solution was added in the culture plate to stop the digestion. The cells were carefully scoured with micropipette (1 ml) to give a uniform cell suspension. The suspension was implanted into a 96-well cell culture plate by 2500 cells/100 μl per well. The culture plate was incubated overnight under 5% CO2 at 37° C. In day 2, 100 μl of culture solution comprising the compound was added in each well, and further incubated for 68 h under 5% CO2 at 37° C.
(§4) 6. The culture solution was sucked out;
7. 100 μl of serum-free culture solution containing 0.5 mg/ml MTT was added in each well, and incubated for 4 h;
(§5) 8. The culture solution was carefully sucked out;
9. 100 μl of DMSO was added into each well and vibrated to dissolve;
(§6) 10. OD values were determined at 490 nM.
(§7) 1. Calculation of Relative Inhibition Ratio The inhibition ratio of a compound on cell growth=(PC−n)/(PC−NC)×100%
IC50: concentration of a compound where inhibition ratio was 50%. IC50 values were fitted with Origin7.5.

BT-474 cells = test: BT-474 Cell Growth Inhibition Test (SRB Assay); assay type: cell-based, human; conditions: Homo sapiens, 70 h incubation; for inhibition at 1 µM: BT-474, 70 h, compound 1 μM, read-out: Growth Inhibition Ratio (%)
Protocol: BT-474 Cell Growth Inhibition Test (SRB Assay)
1. Cell strains: BT-474 (human breast tumor cell strains);
2. SRB: available from Sigmaaldrich, goods number: S9012, lot number: 047K3751. SRB was reserved at the room temperature. 0.4% (w/v) of working solution was formulated with 1% of glacial acetic acid. The solution was reserved at the temperature of 4° C.; anti-tumor compounds; DMSO.
Culture medium (90% EMEM+10% FBS+0.1 mM NEAA, reserved at 4° C.);
(§8) 1. A plate (10 cm) of cells in logarithmic growth phase normally cultured was collected. The culture solution was sucked out. The plate was washed with 5 mL of PBS 1-2 times;
2. PBS was sucked out, and […] of 0.25% pancreatin was added to infiltrate the cells for 30 s;
3. The pancreatin was sucked out. The culture plate was pleaced in an incubator. Digestion was carried out for about 5 min at 37° C.;
4. 3 mL of complete culture solution was added to the culture plate to stop the digestion. The cells were carefully scoured with micropipette (1 ml) to give a uniform single cell suspension;
5. Cell suspension was counted. The suspension was diluted to 1×10^5/ml. The resulting suspension was developed uniformly on a plate. The plate was incubated under 5% CO2 at 37° C. overnight. In day 2, 80 μL of complete culture medium was added in each well and then 20 μL of culture solution comprising a compound was added. The mixture was incubated for 70 h under 5% CO2 at 37° C.
(§9) 6. The culture solution was sucked out. 100 uL of TCA fixed cells which were diluted to 10% were added to each well. The plate was kept in a refrigerator for 1 h at 4° C.
(§10) 7. TCA stationary liquid was sucked out. Each well was washed with 150 μL of ddH2O five times;
(§11) 8. After the stationary liquid was cleansed, the plate was dried in the air at the room temperature;
(§12) 9. 60 μL of SRB staining solution was added in each well. The well was stained for 15 min at the room temperature;
(§13) 10. The SRB staining solution was sucked out. Each well was washed with 150 μL of 1% glacial acetic acid five times;
(§14) 11. After the SRB staining solution was cleansed, the plate was dried in the air at the room temperature;
(§15) 12. 100 μL of 10 mM Tris was added in each well. The plate was vibrated to dissolve out SRB;
(§16) 13. OD values were determined at 570 nM.
as §7
(§17) IC50: Concentration of a compound where inhibition ratio was 50%. IC50 values were fitted with Origin7.5.

NCI-H460 cells = test: NCI-H460 Cell Growth Inhibition Test (MTT Assay); assay type: cell-based; conditions: Homo sapiens, 72 h incubation
Protocol: NCI-H460 Cell Growth Inhibition Test (MTT Assay)
1. Cell strains: NCI-H460 (human large cell lung cancer cell strains);
as §1, §2
(§18) 3. PBS was sucked out. 2 ml of 0.25% pancreatin was added to infiltrate the cells for 1 min;
(§19) 4. The pancreatin was sucked out. The culture plate was placed in an incubator. Digestion was carried out for about 2 min at 37° C.;
as §3, with “was added to the culture” for “was added in the culture”, “solution comprising a compound was” for “solution comprising the compound was”, “incubated for 72 h under” for “incubated for 68 h under”
as §4
(§20) 7. 100 μl of serum-free culture solution containing 0.5 mg/ml MTT was added in each well, and incubated for 3 h;
as §5
(§21) 9. 100 μl of DMSO was added in each well and vibrated to dissolve;
as §6, §7, §17

A549 cells = test: A549 Cell Growth Inhibition Test (MTT Assay); assay type: cell-based; conditions: Homo sapiens, 72 h incubation
Protocol: A549 Cell Growth Inhibition Test (MTT Assay)
1. Cell strains: […] (human lung caner cell strains);
Culture medium: 90% F12K+10% FBS;
as §1
2. The culture solution was sucked out. Tthe plate was washed with 5 ml of PBS 1-2 times;
as §18, §19
as §3, with “was added to the culture” for “was added in the culture”, “solution comprising a compound was” for “solution comprising the compound was”, “incubated for 72 h under” for “incubated for 68 h under”
as §4, §20, §5, §21, §6, §7, §17

Fadu cells = test: Fadu Cell Growth Inhibition Test (MTT Assay); assay type: cell-based; conditions: Homo sapiens, 72 h incubation
Protocol: Fadu Cell Growth Inhibition Test (MTT Assay)
Cell strains: Fudu (human head and neck cancer cell strains);
Culture medium: 90% EMEM+10% FBS;
as §1, §2
(§22) 3. PBS was sucked out. 1.5 ml of 0.25% pancreatin was added to infiltrate the cells for 1 min;
4. The pancreatin was sucked out. The culture plate was placed in an incubator. Digestion was carried out for about 5 min at 37° C.;
(§23) 5. 4.5 ml of complete culture solution was added to the culture plate to stop the digestion. The cells were carefully scoured with micropipette (1 ml) to give a uniform cell suspension. The suspension was implanted into a 96-well cell culture plate by 6000 cells/100 μl per well. The culture plate was incubated overnight under 5% CO2 at 37° C. In day 2, 100 μl of culture solution comprising a compound was added in each well, and further incubated for 72 h under 5% CO2 at 37° C.
as §4, §20, §5
(§24) 9. 100 μl of DMSO was added in each welland vibrated to dissolve;
as §6, §7, §17

NCI-N87 cells = test: NCI-N87 Cell Growth Inhibition Test (MTT Assay); assay type: cell-based; conditions: Homo sapiens, 72 h incubation
Protocol: NCI-N87 Cell Growth Inhibition Test (MTT Assay)
1. Cell strains: NCI-N87 (human gastric carcinoma cell strains);
as §1
2. The culture solution was sucked out. The plate was washed wtih 5 ml of PBS 1-2 times;
as §22
4. The pancreatin was sucked out. The culture plate was placed in an incubator. Digestion was carried out for about 12 min at 37° C.;
as §23, with “cell culture disc by 17000” for “cell culture plate by 6000”, “disc by 17000 cells/100 μl” for “plate by 6000 cells/100 μl”
as §4, §20, §5, §24, §6
1. Calculation of Rrelative Inhibition Ratio The inhibition ratio of a compound on cell growth=(PC−n)/(PC−NC)×100%
as §17

Sk-Br-3 cells = test: Sk-Br-3 Cell Growth Inhibition Test (SRB Assay); assay type: cell-based; conditions: Homo sapiens, 91 h incubation
Protocol: Sk-Br-3 Cell Growth Inhibition Test (SRB Assay)
1. Cell strains: Sk-Br-3 (human breast cancer cell strains);
2. SRB: available from Sigmaaldrich, goods number: S9012, lot number: 047K3751. SRB was reserved at the room temperature. 0.4% (w/v) of working solution was formulated with 1% of glacial acetic acid. The solution was reserved at 4° C.; anti-tumor compounds; DMSO
Culture medium: 90% DMEM+10% FBS;
as §8
2. PBS was sucked out. […] of 0.25% pancreatin was added to infiltrate the cells for 30 s;
3. The pancreatin was sucked out. The culture plate was placed in an incubator. Digestion was carried out for about 1.5-2 min at 37° C.;
4. 4 mL of complete culture solution was added to the culture plate to stop the digestion. The cells were carefully scoured with micropipette (1 ml) to give a uniform single cell suspension;
5. Cell suspension was counted. The suspension was diluted to 1×10^5/ml. The resulting suspension was developed uniformly on a plate by 10000 cells/100 μl per well. The culture plate was incubated overnight under 5% CO2 at 37° C. In day 2, 100 μl of culture solution comprising a compound was added in each well, and further incubated for 91 h under 5% CO2 at 37° C.
as §9, §10, §11, §12, §13, §14, §15, §16
To: OD values of the starting content of cells when the cells were developed on a plate;
PC: OD values of cells after normal growth in control wells without a compound;
Ti: OD values of cells after growth in test wells with a compound;
NC: Background OD values of blank well without a compound and cells
Therefore: Ratio of cells in test wells to normal wells (% of control cell growth)=(Ti−To)/(PC−To)×100%
Ratio GI50 was concentration of a compound at the point of 50%.
Therefore: Ratio of killed cells to inoculated cells (% of killed cells)=(Ti−To)/(To−NC)×100%
LC50 was concentration point of a compound when half of the starting inoculated concentration was reached.
Concentration of a compound at this point is defined as TGI (total growth inhibition).

| SMILES | inhibition at 1 µM (A431 cells) [%] | inhibition at 1 µM (BT-474 cells) [%] | also measured |
| --- | --- | --- | --- |
| C#Cc1cccc(Nc2c(C#N)cnc3cc(OC4CCOC4)c(NC(=O)/C=C/CN(C)C)cc23)c1 (mixture of isomers) [Example 177, (E/Z)-N-(3-CYANO-4-(3-ETHYNYLPHENYLAMINO)-7-(TETRAHYDROFURAN-3-YL-OXY)QUINOLIN-6-YL)-4-(DIMETHYLAMINO)-BUT-2-ENAMIDE] | 81 | 87 | – |
| Cc1ccc(COc2ccc(Nc3c(C#N)cnc4cc(O[C@H]5CCOC5)c(NC(=O)/C=C/CN(C)C)cc34)cc2Cl)cc1 [Example 167, (S,E)-N-(4-(4-(4-METHYLBENZYLOXY)-3-CHLOROPHENYLAMINO)-3-CYANO-7-(TETRAHYDROFURAN-3-YL-OXY)QUINOLIN-6-YL)-4-(DIMETHYLAMINO)-BUT-2-ENAMIDE] | 75 | 75 | – |
| Cc1ccccc1COc1ccc(Nc2c(C#N)cnc3cc(O[C@H]4CCOC4)c(NC(=O)/C=C/CN(C)C)cc23)cc1Cl [Example 166, (S,E)-N-(4-(4-(2-METHYLBENZYLOXY)-3-CHLOROPHENYLAMINO)-3-CYANO-7-(TETRAHYDROFURAN-3-YL-OXY)QUINOLIN-6-YL)-4-(DIMETHYLAMINO)-BUT-2-ENAMIDE] | 69 | 69 | – |
| CN(C)C/C=C/C(=O)Nc1cc2c(Nc3ccc(F)c(Cl)c3)c(C#N)cnc2cc1Oc1cccnc1 [Example 174, (E)-N-(4-(3-CHLORO-4-FLUOROPHENYLAMINO)-3-CYANO-7-(PYRIDIN-3-YL-OXY)QUINOLIN-6-YL)4-(DIMETHYLAMINO)-BUT-2-ENAMIDE] | – | – | IC50 (NCI-H460 cells): 3000 nM; IC50 (A431 cells): 950 nM; IC50 (A549 cells): 3700 nM |
| N#Cc1cnc2cc(O[C@H]3CCOC3)c(NC(=O)/C=C/CNCCCCCCO)cc2c1Nc1ccc(OCc2ccccn2)c(Cl)c1 [Example 154, (S,E)-N-(4-(3-CHLORO-4-(PYRIDIN-2-YL-METHOXY)PHENYLAMINO)-3-CYANO-7-(TETRAHYDROFURAN-3-YL-OXY)QUINOLIN-6-YL)-4-(6-HYDROXYHEXYLAMINO)-BUT-2-ENAMIDE] | – | – | IC50 (Fadu cells): 324 nM; IC50 (NCI-N87 cells): 41 nM; IC50 (A431 cells): 162 nM; GI50 (Sk-Br-3 cells): 38 nM; IC50 (BT-474 cells): 12 nM |
| CN(C)C/C=C/C(=O)Nc1cc2c(Nc3ccc(F)c(Cl)c3)c(C#N)cnc2cc1OC1CCOC1 (mixture of isomers) [Example 176, (E/Z)-N-(4-(3-CHLORO-4-FLUOROPHENYLAMINO)-3-CYANO-7-(TETRAHYDROFURAN-3-YL-OXY)QUINOLIN-6-YL)-4-(DIMETHYLAMINO)-BUT-2-ENAMIDE] | 79 | 89 | – |
| CN(C)C/C=C/C(=O)Nc1cc2c(Nc3ccc(OCc4cccc(F)c4)c(Cl)c3)c(C#N)cnc2cc1OC1CCOC1 (mixture of isomers) [Example 180, (E/Z)-N-(4-(4-(3-FLUOROBENZYLOXY)-3-CHLOROPHENYLAMINO)-3-CYANO-7-(TETRAHYDROFURAN-3-YL-OXY)QUINOLIN-6-YL)-4-(DIMETHYLAMINO)-BUT-2-ENAMIDE] | 73 | 78 | – |
